According to PubChem BioAssay (NCI):
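1) Cells in 96-well plates. 2) Compound, 48 h, 5 concentrations. 3) Linear interpolation between surrounding doses. 4) Unreached endpoint = highest concentration. GI50 marks 50% less growth. TGI: total growth inhibition.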

How the values were obtained:
Assay in all cases: NCI anticancer screen, dose series, 48 h
OVCAR-8 ovarian = system: OVCAR-8 ovarian
KM12 colon = system: KM12 colon
NCI-H460 lung = system: NCI-H460 lung
A549 NSCLC = system: A549 NSCLC
CAKI-1 renal = system: CAKI-1 renal
UACC-62 melanoma = system: UACC-62 melanoma
HCT-116 colon = system: HCT-116 colon
ACHN renal = system: ACHN renal
SF-539 CNS = system: SF-539 CNS
T-47D breast = system: T-47D breast

Structure (SMILES)	GI50 (OVCAR-8 ovarian)	TGI (OVCAR-8 ovarian)	GI50 (KM12 colon)	TGI (KM12 colon)	GI50 (NCI-H460 lung)	TGI (NCI-H460 lung)	GI50 (A549 NSCLC)	TGI (A549 NSCLC)	GI50 (CAKI-1 renal)	TGI (CAKI-1 renal)	GI50 (UACC-62 melanoma)	TGI (UACC-62 melanoma)	GI50 (HCT-116 colon)	TGI (HCT-116 colon)	GI50 (ACHN renal)	TGI (ACHN renal)	GI50 (SF-539 CNS)	TGI (SF-539 CNS)	TGI (T-47D breast)	GI50 (T-47D breast)
CC(=O)[CH-]C(=O)c1ccccc1.CC(=O)[CH-]C(=O)c1ccccc1.Cl.[O-]c1ccccn1.[O-]c1ccccn1.[Ti+4]	> 100 µM	> 100 µM	> 100 µM	> 100 µM	> 100 µM	> 100 µM	> 100 µM	> 100 µM	> 100 µM	> 100 µM	> 100 µM	> 100 µM	> 100 µM	> 100 µM	> 100 µM	> 100 µM	> 100 µM	> 100 µM	–	–
COc1cc2c(cc1OC)NC(=O)NC(Cc1ccc3c(c1)OCO3)CC2 (configuration not stated)	–	> 100 µM	–	> 100 µM	–	> 100 µM	–	> 100 µM	–	> 100 µM	–	> 100 µM	–	–	–	> 100 µM	–	–	–	–
CC1=C(Cl)C=CP(=O)(OC(C)C)C1 (configuration not stated)	–	> 100 µM	–	> 100 µM	–	> 100 µM	–	> 100 µM	–	–	–	> 100 µM	–	> 100 µM	–	> 100 µM	–	> 100 µM	–	–
O=C(CC1(O)C(=O)Nc2ccccc21)c1ccc(O)cc1 (configuration not stated)	–	–	–	> 100 µM	–	> 100 µM	–	> 100 µM	–	> 100 µM	–	> 100 µM	–	> 100 µM	–	> 100 µM	–	> 100 µM	–	–
Clc1ccc2nc(-c3ccccc3)nc(Cl)c2c1	–	> 100 µM	–	> 100 µM	–	> 100 µM	–	> 100 µM	–	54.9 µM	–	> 100 µM	–	> 100 µM	–	76.9 µM	–	> 100 µM	–	–
Cc1ccc(C2=C(c3ccccc3)C(c3ccccc3)Oc3ccc(C)cc32)cc1 (configuration not stated)	6.92 µM	26.7 µM	5.5 µM	23.6 µM	7.1 µM	39.9 µM	3.87 µM	10.7 µM	12.7 µM	31.4 µM	10 µM	22.8 µM	1.68 µM	3.43 µM	16.6 µM	31.2 µM	6.29 µM	20 µM	–	–
CC1=C(C(=O)Nc2ccc([N+](=O)[O-])cc2)C(c2ccc3c(c2)OCO3)C(C(=O)Nc2ccc([N+](=O)[O-])cc2)=C(C)N1	–	27.9 µM	–	24.9 µM	–	> 100 µM	–	> 100 µM	–	> 100 µM	–	59.4 µM	–	> 100 µM	–	> 100 µM	–	> 100 µM	–	–
CCOC(=O)[C@H]1Nc2ccc([N+](=O)[O-])cc2C2c3ccccc3CC21 (some centres not stated)	–	56.1 µM	–	> 100 µM	–	44.7 µM	–	91.2 µM	–	> 100 µM	–	30.6 µM	–	37.9 µM	–	72.3 µM	–	31.8 µM	–	–
Oc1ccc(CCNCc2cc3c(cc2Br)OCO3)cc1	–	> 100 µM	–	–	–	> 100 µM	–	> 100 µM	–	–	–	> 100 µM	–	> 100 µM	–	> 100 µM	–	> 100 µM	> 100 µM	–
CCOC(=O)c1c(C)nc2c(c1N)CC(=O)N2CCc1ccccc1	3.17 µM	16.7 µM	0.35 µM	15.5 µM	1.77 µM	14.1 µM	4.19 µM	36.9 µM	–	–	0.629 µM	17.2 µM	0.32 µM	11.2 µM	0.595 µM	6.48 µM	0.324 µM	11.9 µM	22.9 µM	0.962 µM
